Test results taken from patent US20020115611A1, “Methods for screening GABA-modulatory compounds for specified pharmacological activities” (priority 1999, published 2002).

Molecular target: α5β3γ2 GABAA subtype receptor (Homo sapiens, UniProt P18507+P31644)
Experiment: cell-based
Conditions: oocyte electrophysiology EC50 α5β3γ2, Xenopus laevis oocytes, human subunits, GABA at EC10
From the text: (§1) The in vitro efficacy and EC50 value of the test compound may be determined by measuring the chloride flux at the surface of a cell expressing the α,β, and γ subunits of the GABAA receptor in response to GABA by the two electrode voltage-clamp technique. While a variety of cells are suitable for use herein, the preferred cells used in this technique are Xenopus laevis oocytes that have been injected with non-polyadenylated CRNA coding for human derived α, βand γ GABAA subunits. The preferred form of the γ subunit is the normally expressed long form although an alternatively spliced form may be used.
(§2) Assays are carried out as described previously in White and Gurley, 1995 and White, et al., 1995. Xenopus laevis oocytes are enzymatically isolated and injected with non-polyadenylated cRNA for human derived α, β and γ GABAA subunits, respectively. In more preferred embodiments cRNA for the α1β2γ2, α2β3γ2, α3β3γ2, and α5β3γ2 subunit combinations are injected. Only one of these subunit combinations is injected per cell. For each subunit combination, sufficient message is injected to result in current amplitudes of >10 nA when 1 μM GABA is applied. Electrophysiological recordings are carried out using the two electrode voltage-clamp technique at a membrane holding potential of −70 mV.
(§3) Compounds are evaluated against a GABA concentration that evokes <10% (EC10) of the maximal evocable GABA current. Each oocyte is exposed to increasing concentrations of compound in order to evaluate a concentration/effect relationship.
(§4) Specificity of a compound for the Ro15-1788 site is determined following completion of the concentration/effect curve. After washing the oocyte sufficiently to remove previously applied compound, the oocyte is exposed to GABA and 1 μM Ro15-1788, followed by exposure to GABA, 1 μM Ro15-1788, and compound. Percent change due to addition of compound is calculated as described above. Any percent change observed in the presence of Ro15-1788 is subtracted from the percent changes in current amplitude observed in the absence of 1 μM Ro15-1788. These net values are used for the calculation of average activity and EC50 values.
(§5) To evaluate average activity and EC50 values, the concentration/effect data are averaged across cells and fit to the logistic equation. Average values are reported as mean±standard error.

Sequence of α5β3γ2 GABAA subtype receptor (P31644 32-462): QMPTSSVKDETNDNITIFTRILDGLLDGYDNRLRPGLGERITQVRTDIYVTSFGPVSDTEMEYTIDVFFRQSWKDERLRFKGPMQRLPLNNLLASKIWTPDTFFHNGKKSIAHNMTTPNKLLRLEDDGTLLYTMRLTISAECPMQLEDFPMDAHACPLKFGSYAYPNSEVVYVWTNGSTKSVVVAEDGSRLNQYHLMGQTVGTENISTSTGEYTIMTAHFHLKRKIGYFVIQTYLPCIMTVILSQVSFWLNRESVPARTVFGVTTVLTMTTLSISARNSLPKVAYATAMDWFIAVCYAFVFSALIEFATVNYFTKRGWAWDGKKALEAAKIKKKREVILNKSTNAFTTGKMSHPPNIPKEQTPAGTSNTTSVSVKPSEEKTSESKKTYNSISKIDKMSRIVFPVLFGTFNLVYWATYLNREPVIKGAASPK
Sequence of α5β3γ2 GABAA subtype receptor (P28472 26-473 partner): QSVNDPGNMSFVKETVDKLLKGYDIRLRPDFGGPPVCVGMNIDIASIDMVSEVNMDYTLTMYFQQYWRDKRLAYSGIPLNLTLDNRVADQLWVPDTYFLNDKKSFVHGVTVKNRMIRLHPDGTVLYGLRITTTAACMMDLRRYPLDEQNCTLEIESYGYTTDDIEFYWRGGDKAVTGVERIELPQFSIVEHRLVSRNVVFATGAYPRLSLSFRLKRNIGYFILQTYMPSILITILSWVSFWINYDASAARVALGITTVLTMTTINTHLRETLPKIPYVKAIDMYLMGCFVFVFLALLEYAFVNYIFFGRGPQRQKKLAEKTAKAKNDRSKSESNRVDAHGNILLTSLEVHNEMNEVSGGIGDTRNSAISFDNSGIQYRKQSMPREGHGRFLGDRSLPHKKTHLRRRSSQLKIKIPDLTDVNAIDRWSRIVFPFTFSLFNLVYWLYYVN
Sequence of α5β3γ2 GABAA subtype receptor (P18507 40-475): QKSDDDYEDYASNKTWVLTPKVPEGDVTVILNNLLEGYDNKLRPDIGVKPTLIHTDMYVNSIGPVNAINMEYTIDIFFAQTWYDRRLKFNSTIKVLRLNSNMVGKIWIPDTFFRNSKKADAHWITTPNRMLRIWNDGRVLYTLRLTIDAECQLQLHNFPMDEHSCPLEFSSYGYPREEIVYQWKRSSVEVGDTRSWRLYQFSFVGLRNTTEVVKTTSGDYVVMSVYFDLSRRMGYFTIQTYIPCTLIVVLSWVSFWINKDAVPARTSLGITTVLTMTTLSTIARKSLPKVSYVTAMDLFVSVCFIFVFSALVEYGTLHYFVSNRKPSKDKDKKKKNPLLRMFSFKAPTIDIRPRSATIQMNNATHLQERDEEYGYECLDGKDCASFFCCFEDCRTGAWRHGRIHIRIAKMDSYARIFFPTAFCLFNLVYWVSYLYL

Structure (SMILES)	EC50 [µM]
O=C(Nc1ccc(OCCO)cc1)c1c[nH]c2c1C(=O)CCC2 [compound 12]	0.019
O=c1c(-c2ccccc2F)nc2c[nH]c3ccccc3n1-2 [compound 2]	0.036
O=C(Nc1ccccc1)c1c[nH]c2c1C(=O)CCCC2 [compound 13]	0.023
Cc1nnc2n1-c1ccc(Cl)cc1C(c1ccccc1)=NC2 [Alprazolam, reference compound]	0.01

Same assay, conditions: oocyte electrophysiology EC50 α5β3γ2, Xenopus laevis oocytes, human subunits; μM

Structure (SMILES)	EC50 [µM]
Cc1ccc(-c2nc3ccc(C)cn3c2CC(=O)N(C)C)cc1 [Zolpidem, reference compound]	> 3

Same assay, conditions: read-out: oocyte electrophysiology maximum potentiation α5β3γ2

Structure (SMILES)	Emax [%]
Cc1ccc(-c2nc3ccc(C)cn3c2CC(=O)N(C)C)cc1 [Zolpidem, reference compound]	< 20

Molecular target: α3β3γ2 GABAA subtype receptor (Homo sapiens, UniProt P18507+P34903)
Sequence (P34903 29-492): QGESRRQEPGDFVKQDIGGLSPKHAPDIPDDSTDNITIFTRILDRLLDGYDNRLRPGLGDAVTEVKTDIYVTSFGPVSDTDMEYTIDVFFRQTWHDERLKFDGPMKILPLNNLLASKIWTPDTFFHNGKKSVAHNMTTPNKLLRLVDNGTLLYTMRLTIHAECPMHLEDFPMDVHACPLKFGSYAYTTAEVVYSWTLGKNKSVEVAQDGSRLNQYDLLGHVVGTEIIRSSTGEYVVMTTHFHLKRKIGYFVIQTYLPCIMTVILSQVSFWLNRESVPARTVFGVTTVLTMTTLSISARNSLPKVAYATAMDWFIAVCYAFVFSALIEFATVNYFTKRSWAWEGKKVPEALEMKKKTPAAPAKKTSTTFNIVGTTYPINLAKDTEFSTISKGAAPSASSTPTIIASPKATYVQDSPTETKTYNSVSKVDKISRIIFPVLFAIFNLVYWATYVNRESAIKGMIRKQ
Sequence (P28472 26-473 partner): as the sequence (P28472 26-473 partner) above
Sequence (P18507 40-475): as the sequence (P18507 40-475) above
Experiment: cell-based
Conditions: Xenopus laevis oocytes, human subunits, GABA at EC10; read-out: oocyte electrophysiology EC50 α3β3γ2
From the text: as §1, §2, §3, §4, §5

Structure (SMILES)	EC50 [nM]
c1cc2c(cc1-c1ncc3[nH]c4c(c3n1)CCCC4)OCO2 [compound 9]	331
CCOc1ccc(-n2c(=O)c3c[nH]c4ccccc4n-3c2=O)cc1 [compound 1]	144

Same assay, conditions: oocyte electrophysiology EC50 α3β3γ2, Xenopus laevis oocytes, human subunits, GABA at EC10

Structure (SMILES)	EC50 [nM]
O=C(Nc1ccc(OCCO)cc1)c1c[nH]c2c1C(=O)CCC2 [compound 12]	18
O=C(Nc1cccc(F)c1)c1c[nH]c2c(c1=O)CCC2 [compound 5]	21
CCOc1ccc(-n2c(=O)c3c[nH]c4ccccc4n-3c2=O)cc1 [compound 1]	35
O=c1c(-c2ccccc2F)nc2c[nH]c3ccccc3n1-2 [compound 2]	23
O=C(Nc1ccccc1)c1c[nH]c2c1C(=O)CCCC2 [compound 13]	36
Cc1nnc2n1-c1ccc(Cl)cc1C(c1ccccc1)=NC2 [Alprazolam, reference compound]	69

Same assay, conditions: read-out: oocyte electrophysiology maximum potentiation α3β3γ2

Structure (SMILES)	Emax [%]
c1cc2c(cc1-c1ncc3[nH]c4c(c3n1)CCCC4)OCO2 [compound 9]	23
Cc1ccc(-c2nc3ccc(C)cn3c2CC(=O)N(C)C)cc1 [Zolpidem, reference compound]	882

Molecular target: α1β2γ2 GABAA subtype receptor (Homo sapiens, UniProt P14867+P18507)
Sequence (P14867 28-456): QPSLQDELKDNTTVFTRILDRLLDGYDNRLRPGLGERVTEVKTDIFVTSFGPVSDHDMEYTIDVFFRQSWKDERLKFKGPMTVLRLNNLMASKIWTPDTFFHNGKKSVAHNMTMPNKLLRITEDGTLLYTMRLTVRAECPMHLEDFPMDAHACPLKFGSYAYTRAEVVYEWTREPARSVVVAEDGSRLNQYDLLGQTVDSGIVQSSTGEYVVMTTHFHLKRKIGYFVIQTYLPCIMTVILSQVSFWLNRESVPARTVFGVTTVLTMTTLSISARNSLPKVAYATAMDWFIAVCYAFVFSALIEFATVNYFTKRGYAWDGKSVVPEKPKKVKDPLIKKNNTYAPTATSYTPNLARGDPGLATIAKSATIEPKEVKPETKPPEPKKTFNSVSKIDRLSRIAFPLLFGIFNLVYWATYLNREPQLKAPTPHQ
Sequence (P47870 25-512 partner limits assumed): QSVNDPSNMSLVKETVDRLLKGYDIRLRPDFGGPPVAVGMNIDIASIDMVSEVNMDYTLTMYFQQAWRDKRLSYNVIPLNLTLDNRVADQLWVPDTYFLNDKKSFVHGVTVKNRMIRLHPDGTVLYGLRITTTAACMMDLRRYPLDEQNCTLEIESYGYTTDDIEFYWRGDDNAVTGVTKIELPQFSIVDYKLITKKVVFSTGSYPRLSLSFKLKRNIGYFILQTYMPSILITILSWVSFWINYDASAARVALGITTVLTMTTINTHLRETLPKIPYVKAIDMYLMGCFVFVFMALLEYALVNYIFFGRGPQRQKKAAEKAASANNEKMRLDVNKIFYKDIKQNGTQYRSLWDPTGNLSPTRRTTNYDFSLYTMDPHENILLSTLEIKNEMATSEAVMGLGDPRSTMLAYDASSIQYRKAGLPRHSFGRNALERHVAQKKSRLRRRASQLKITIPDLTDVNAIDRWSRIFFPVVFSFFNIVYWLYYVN
Sequence (P18507 40-475): as the sequence (P18507 40-475) above
Experiment: cell-based
Conditions: Xenopus laevis oocytes, human subunits, GABA at EC10; negative = inverse agonism
From the text: as §1, §2, §3, §4, §5

Structure (SMILES)	oocyte electrophysiology maximum potentiation α1β2γ2 [%]
O=C(Nc1ccc(OCCO)cc1)c1c[nH]c2c1C(=O)CCC2 [compound 12]	15
c1cc2c(cc1-c1ncc3[nH]c4c(c3n1)CCCC4)OCO2 [compound 9]	33
CCOc1ccc(-n2c(=O)c3c[nH]c4ccccc4n-3c2=O)cc1 [compound 1]	12
O=c1c(-c2ccccc2F)nc2c[nH]c3ccccc3n1-2 [compound 2]	18

Same assay, conditions: Xenopus laevis oocytes, human subunits, GABA at EC10; read-out: oocyte electrophysiology EC50 α1β2γ2

Structure (SMILES)	EC50 [nM]
CCOc1ccc(-n2c(=O)c3c[nH]c4ccccc4n-3c2=O)cc1 [compound 1]	159

Same assay, conditions: oocyte electrophysiology EC50 α1β2γ2, Xenopus laevis oocytes, human subunits, GABA at EC10

Structure (SMILES)	EC50 [nM]
O=C(Nc1ccc(OCCO)cc1)c1c[nH]c2c1C(=O)CCC2 [compound 12]	18
c1cc2c(cc1-c1ncc3[nH]c4c(c3n1)CCCC4)OCO2 [compound 9]	74
CCOc1ccc(-n2c(=O)c3c[nH]c4ccccc4n-3c2=O)cc1 [compound 1]	6
O=c1c(-c2ccccc2F)nc2c[nH]c3ccccc3n1-2 [compound 2]	33
O=C(Nc1ccccc1)c1c[nH]c2c1C(=O)CCCC2 [compound 13]	3
Cc1nnc2n1-c1ccc(Cl)cc1C(c1ccccc1)=NC2 [Alprazolam, reference compound]	37

Molecular target: α2β3γ2 GABAA subtype receptor (Homo sapiens, UniProt P18507+P47869)
Sequence (P47869 29-451): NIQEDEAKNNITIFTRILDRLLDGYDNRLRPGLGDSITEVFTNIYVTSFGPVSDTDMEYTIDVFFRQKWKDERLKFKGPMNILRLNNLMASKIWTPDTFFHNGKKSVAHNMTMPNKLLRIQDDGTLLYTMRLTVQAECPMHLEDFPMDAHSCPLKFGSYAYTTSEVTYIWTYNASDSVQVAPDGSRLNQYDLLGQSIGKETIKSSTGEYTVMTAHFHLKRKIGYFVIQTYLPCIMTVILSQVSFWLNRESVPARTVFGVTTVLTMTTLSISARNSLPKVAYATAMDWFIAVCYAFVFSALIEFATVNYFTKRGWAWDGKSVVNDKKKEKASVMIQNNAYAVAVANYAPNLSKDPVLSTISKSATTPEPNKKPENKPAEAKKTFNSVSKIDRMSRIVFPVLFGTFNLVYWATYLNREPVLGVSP
Sequence (P28472 26-473 partner): as the sequence (P28472 26-473 partner) above
Sequence (P18507 40-475): as the sequence (P18507 40-475) above
Experiment: cell-based
Conditions: Xenopus laevis oocytes, human subunits, GABA at EC10; negative = inverse agonism
From the text: as §1, §2, §3, §4, §5

Structure (SMILES)	oocyte electrophysiology maximum potentiation α2β3γ2 [%]
O=C(Nc1cccc(F)c1)c1c[nH]c2c(c1=O)CCC2 [compound 5]	44
CCOc1ccc(-n2c(=O)c3c[nH]c4ccccc4n-3c2=O)cc1 [compound 1]	71
O=c1c(-c2ccccc2F)nc2c[nH]c3ccccc3n1-2 [compound 2]	40

Same assay, conditions: Xenopus laevis oocytes, human subunits, GABA at EC10; read-out: oocyte electrophysiology EC50 α2β3γ2

Structure (SMILES)	EC50 [nM]
c1cc2c(cc1-c1ncc3[nH]c4c(c3n1)CCCC4)OCO2 [compound 9]	184
CCOc1ccc(-n2c(=O)c3c[nH]c4ccccc4n-3c2=O)cc1 [compound 1]	114

Same assay, conditions: oocyte electrophysiology EC50 α2β3γ2, Xenopus laevis oocytes, human subunits, GABA at EC10

Structure (SMILES)	EC50 [nM]
O=C(Nc1ccc(OCCO)cc1)c1c[nH]c2c1C(=O)CCC2 [compound 12]	11
O=C(Nc1cccc(F)c1)c1c[nH]c2c(c1=O)CCC2 [compound 5]	9
CCOc1ccc(-n2c(=O)c3c[nH]c4ccccc4n-3c2=O)cc1 [compound 1]	20
O=c1c(-c2ccccc2F)nc2c[nH]c3ccccc3n1-2 [compound 2]	12
O=C(Nc1ccccc1)c1c[nH]c2c1C(=O)CCCC2 [compound 13]	53
Cc1nnc2n1-c1ccc(Cl)cc1C(c1ccccc1)=NC2 [Alprazolam, reference compound]	12

Same assay, conditions: read-out: oocyte electrophysiology maximum potentiation α2β3γ2

Structure (SMILES)	Emax [%]
c1cc2c(cc1-c1ncc3[nH]c4c(c3n1)CCCC4)OCO2 [compound 9]	53
Cc1ccc(-c2nc3ccc(C)cn3c2CC(=O)N(C)C)cc1 [Zolpidem, reference compound]	350

System: rats
Experiment: Porsolt forced swim test
Assay type: in vivo
Conditions: rat, administered IV; antidepressant effect
From the text: (§6) A statistically significant effect in the spatial water maze, step-down passive avoidance, spontaneous locomotor activity, Porsolt swim test, or the elevated plus maze models is defined as p<0.05 using a valid parametric statistical test. Likewise, no statistically significant effect is defined in these models as p>0.05 using a valid parametric statistical test. No statistically significant effect for either of the seizure threshold models is defined as a decrease of less than 25% in the seizure threshold in the presence of a seizure inducing drug or a result that is not significant at the p<0.05 level.
The effects measured in this model have been correlated to antidepressant efficacy for drugs. The paradigm of this model is that an effective antidepressant compound will cause a rat to make greater attempts to escape a water-filled cylinder than a rat given vehicle only.
Animals used in this study were non-naive male Sprague Dawley Rats (SASCO, St. Louis) weighing between 280-350 grams. The test apparatus consists of 6 clear Plexiglas cylinders 40 cm high×19 cm wide. Cylinders are filled to 18 cm with 25° C. water. Each rat is placed in a cylinder for a 15 minute training session. Following either subchronic or acute dosing of either vehicle (0.5% methylcellulose) of compound, animals are brought back 24 hours later for a 5 minute test session. These test session is videotaped for later scoring.
Subchronic dosing consists of administering drug three times in the 24-hour period between training and testing. The drug is administered 24 hrs., 5 hrs., and 1 hr. prior to the test session. Acute dosing consists of administering the drug once, 1 hour prior to the test session. Scoring is done using a time-sampling computer program written in Visual Basic and run in DOS. […] These sampling score are then converted into percentages of the test session.

Structure (SMILES)	Porsolt swim test, minimal efficacious dose [mg/kg]
CCOc1ccc(-n2c(=O)c3c[nH]c4ccccc4n-3c2=O)cc1 [compound 1]	20

System: rats
Experiment: step-down passive avoidance
Assay type: in vivo
Conditions: rat; cognitive impairment side effect (Table VII); NS = no statistically significant effect over dose range
From the text: as §6
In step-down passive avoidance a rat is placed on a platform located in the center of an electrified grid floor that is contained within a large (45 cm×45 cm×50 cm) white translucent Plexiglas® enclosure. The natural inclination of the rat is to step off the platform and investigate its surroundings. […] Each time the animal steps off the platform it receives a mild foot shock of 2 mAmps×6 sec. Following each shock the animal is removed from the box, placed in its cage for a one minute inter-trial interval, and then returned to the platform. The latency to step down on each trial, the number of trials taken to reach criterion during training and the retention latency are collected.
Testing is conducted approximately 24 hrs. after training. Drug-free animals are placed on the platform in the box in which they will have been trained and the latency to step down onto the grid floor is recorded for one trial as a measure of memory retention.

Structure (SMILES)	step-down passive avoidance, minimal efficacious dose [mg/kg]
c1cc2c(cc1-c1ncc3[nH]c4c(c3n1)CCCC4)OCO2 [compound 9]	0.5
Cc1ccc(-c2nc3ccc(C)cn3c2CC(=O)N(C)C)cc1 [Zolpidem, reference compound]	0.5
